This test deals with T1, KCNQ 2/3 channels (HEK293 cells stably expressing human KCNQ2 and KCNQ3 subunits) (Homo sapiens, UniProt O43525+O43526).
T1 construct: expressed in transfected cells; host or cells: HEK293
As to the kind of experiment: KCNQ2/3 channel activation, thallium flux FLIPR assay (BTC-AM dye). Type of test: cell-based. The following applies: for Emax: HEK293, maximum response relative to response of retigabine at 10 μM (set at 100%), read-out: Max. %; for EC50: HEK293 cells expressing human KCNQ2 and KCNQ3, FLIPR thallium flux. The method, then: The following example describes the assay that can be used to identify compounds that activate KCNQ 2/3 channels.
HEK293 cells stably expressing human KCNQ2 and KCNQ3 subunits were seeded in 96-well, black-walled, clear-bottomed, poly-D-lysine coated plates (BD Biosciences, Bedford, Mass.) at a density of 1×10^5 cells per well 24 hours before the assay. On the assay day, BTC-AM dye (Invitrogen, Carlsbad, Calif.) was loaded into the cells by replacing the cell culture medium with 100 μL/well of 4 μM dye in DPBS. Dye loading was allowed to proceed for 2 hours at room temperature and then cells were washed twice in 100 μL/well of assay buffer (in mM: 10 HEPES pH 7.3, 5 glucose, 140 Na-gluconate, 2.5 K-gluconate, 3.6 Ca-gluconate, 2 MgSO4, 0.1 Ouabain) to remove unloaded dye. Cells were incubated in 50 μL of assay buffer before loading onto a FLIPR system (Molecular Devices, Sunnyvale, Calif.). Various concentrations of compounds to be assayed were added to the cells in 50 μL of assay buffer and incubated for 4 minutes. The fluorescence signal was initiated by adding 100 μL of assay buffer containing 6 mM TlNO3 and 10 mM K2SO4. Fluors were excited using the 488-nm line of an argon laser and emission was filtered using a 540±30 nm bandpass filter. Fluorescent signals were recorded for 3 minutes. Responses over baseline values were plotted versus concentrations of test compounds to obtain an EC50 value. The maximum response for each test compound was determined relative to the response produced at 10 μM by retigabine. The maximum response of retigabine at 10 μM was set at 100%.

The source of these data is patent publication US8609669B2, “Potassium channel modulators” (AbbVie Inc., priority 2010, dated 2013).

By EC50 is commonly meant the concentration needed to bring the measured effect to its halfway point. A low value points to an effect from little substance.

For the compound `CC(C)(C)c1c(NC(=O)CC2CC3CCC2C3)nn2cccnc12` (racemic) [Example 121, (±)-exo-2-bicyclo[2.2.1]hept-2-yl-N-(3-tert-butylpyrazolo[1,5-a]pyrimidin-2-yl)acetamide], the Emax worked out at 150% and the EC50 was below 100 nM.

For `O=C(CC1CC2CCC1C2)Nc1nn2cccnc2c1-c1ccc(OC(F)(F)F)cc1` (racemic) [Example 124, (±)-exo-2-bicyclo[2.2.1]hept-2-yl-N-{3-[4-(trifluoromethoxy)phenyl]pyrazolo[1,5-a]pyrimidin-2-yl}acetamide], the Emax was 130% and the EC50 was in the range of 100 to 500 nM.

As to `CC(C)(C)c1c(NC(=O)CC2(C)CCc3ccccc32)nn2cccnc12` (racemic) [Example 131, (±)-N-(3-tert-butylpyrazolo[1,5-a]pyrimidin-2-yl)-2-(1-methyl-2,3-dihydro-1H-inden-1-yl)acetamide], the Emax came to 97% and the 50% effective concentration (EC50) lay in the range of 1000 to 10000 nM.

Consider `CCC1(c2c(NC(=O)CC3CC4CCC3C4)nn3cccnc23)CCCCC1` (racemic) [Example 146, (±)-exo-2-bicyclo[2.2.1]hept-2-yl-N-[3-(1-ethylcyclohexyl)pyrazolo[1,5-a]pyrimidin-2-yl]acetamide], for which the Emax was 151% and the EC50 lay within 500 to 1000 nM.

`Cc1cnc2c(-c3ccc(F)c(C)c3)c(NC(=O)CC3CC4CCC3C4)nn2c1` (racemic) [Example 150, (±)-exo-2-bicyclo[2.2.1]hept-2-yl-N-[3-(4-fluoro-3-methylphenyl)-6-methylpyrazolo[1,5-a]pyrimidin-2-yl]acetamide]: the Emax was 198% and the EC50 was below 100 nM.

Consider `O=C(CC1CC2CCC1C2)Nc1nn2cccnc2c1-c1ccc(Cl)cc1` (racemic) [Example 158, (±)-exo-2-bicyclo[2.2.1]hept-2-yl-N-[3-(4-chlorophenyl)pyrazolo[1,5-a]pyrimidin-2-yl]acetamide], for which the Emax amounted to 143% and the EC50 fell in the range of 100 to 500 nM.

Consider `Cc1ccnc2c(-c3ccc(OC(F)(F)F)cc3)c(NC(=O)CC3CC4CCC3C4)nn12` (racemic) [Example 160, (±)-exo-2-bicyclo[2.2.1]hept-2-yl-N-{7-methyl-3-[4-(trifluoromethoxy)phenyl]pyrazolo[1,5-a]pyrimidin-2-yl}acetamide], for which the Emax turned out to be 148% and the concentration for a half-maximal effect (EC50) was below 100 nM.

Consider `CC(C)(C)c1c(NC(=O)CC2CCc3ccccc32)nn2cccnc12` (racemic) [Example 172, (±)-N-(3-tert-butylpyrazolo[1,5-a]pyrimidin-2-yl)-2-(2,3-dihydro-1H-inden-1-yl)acetamide], for which the Emax worked out at 20% and the half-maximal effective concentration (EC50) was above 10000 nM.

For `Cc1cnc2c(-c3ccc(F)c(C)c3)c(NC(=O)C(C)c3ccccc3)nn2c1` (racemic) [Example 176, (±)-N-[3-(4-fluoro-3-methylphenyl)-6-methylpyrazolo[1,5-a]pyrimidin-2-yl]-2-phenylpropanamide], the Emax stood at 83% and the 50% effective concentration (EC50) is 100 to 500 nM.

On to `Cc1cnc2c(-c3cccc(OC(F)(F)F)c3)c(NC(=O)CC(C)(C)C)nn2c1` [Example 3, 3,3-dimethyl-N-{6-methyl-3-[3-(trifluoromethoxy)phenyl]pyrazolo[1,5-a]pyrimidin-2-yl}butanamide], for which the Emax came out at 141% and the EC50 was in the range of 100 to 500 nM.

Take `CC1(C)[C@H]2CC[C@@H](CC(=O)Nc3nn4cccnc4c3-c3ccc(OC(F)(F)F)cc3)[C@@H]1C2` [Example 4, 2-[(1S,2S,5S)-6,6-dimethylbicyclo[3.1.1]hept-2-yl]-N-{3-[4-(trifluoromethoxy)phenyl]pyrazolo[1,5-a]pyrimidin-2-yl}acetamide]: the Emax worked out at 73% and the EC50 lay in the range of 500 to 1000 nM.

As to `Cc1cnc2c(Cc3ccc(F)cc3)c(NC(=O)CC3CCCC3)nn2c1` [Example 5, 2-cyclopentyl-N-(3-(4-fluorobenzyl)-6-methylpyrazolo[1,5-a]pyrimidin-2-yl)acetamide], the Emax stood at 143% and the half-maximal effective concentration (EC50) was below 100 nM.

For the compound `COc1cccc(CC(=O)Nc2nn3cc(C)cnc3c2-c2ccc(OC(F)(F)F)cc2)c1` [Example 8, 2-(3-methoxyphenyl)-N-{6-methyl-3-[4-(trifluoromethoxy)phenyl]pyrazolo[1,5-a]pyrimidin-2-yl}acetamide], the Emax was found to be 140% and the EC50 was 500 to 1000 nM.

For the compound `CC(C)(C)Cc1c(NC(=O)CCc2ccccc2)nn2cccnc12` [Example 10, N-[3-(2,2-dimethylpropyl)pyrazolo[1,5-a]pyrimidin-2-yl]-3-phenylpropanamide], the Emax was determined as 156% and the 50% effective concentration (EC50) lay in the range of 1000 to 10000 nM.

As for `CC(C)(C)Cc1c(NC(=O)CCC2CCCCC2)nn2cccnc12` [Example 11, 3-cyclohexyl-N-[3-(2,2-dimethylpropyl)pyrazolo[1,5-a]pyrimidin-2-yl]propanamide], the Emax came to 194% and the EC50 is below 100 nM.

As for `Cc1ccc(-c2c(NC(=O)CC(C)(C)C)nn3c(C)ccnc23)cc1F` [Example 12, N-[3-(3-fluoro-4-methylphenyl)-7-methylpyrazolo[1,5-a]pyrimidin-2-yl]-3,3-dimethylbutanamide], the Emax amounted to 101% and the EC50 fell in the range of 1000 to 10000 nM.

For the compound `Cc1cc(C)n2nc(NC(=O)CCC3CCCCC3)c(CC(C)(C)C)c2n1` [Example 14, 3-cyclohexyl-N-[3-(2,2-dimethylpropyl)-5,7-dimethylpyrazolo[1,5-a]pyrimidin-2-yl]propanamide], the Emax was 182% and the EC50 was below 100 nM.

Take `Cc1cc(C)n2nc(NC(=O)CCc3ccccc3)c(CC(C)(C)C)c2n1` [Example 15, N-[3-(2,2-dimethylpropyl)-5,7-dimethylpyrazolo[1,5-a]pyrimidin-2-yl]-3-phenylpropanamide]: the Emax was 191% and the EC50 was 100 to 500 nM.

Take `COc1ccc(CC(=O)Nc2nn3c(C)cc(C)nc3c2CC(C)(C)C)cc1` [Example 16, N-[3-(2,2-dimethylpropyl)-5,7-dimethylpyrazolo[1,5-a]pyrimidin-2-yl]-2-(4-methoxyphenyl)acetamide]: the Emax was 174% and the EC50 was in the range of 1000 to 10000 nM.

For the compound `Cc1cnc2c(CC(C)(C)C)c(NC(=O)CCC3CCCCC3)nn2c1` [Example 17, 3-cyclohexyl-N-[3-(2,2-dimethylpropyl)-6-methylpyrazolo[1,5-a]pyrimidin-2-yl]propanamide], the Emax is 267% and the 50% effective concentration (EC50) is below 100 nM.

Consider `COc1ccc(CC(=O)Nc2nn3cc(C)cnc3c2CC(C)(C)C)cc1` [Example 18, N-[3-(2,2-dimethylpropyl)-6-methylpyrazolo[1,5-a]pyrimidin-2-yl]-2-(4-methoxyphenyl)acetamide], for which the Emax is 156% and the EC50 lay in the range of 1000 to 10000 nM.

In the case of `Cc1ccc(-c2c(NC(=O)Cc3ccccc3)nn3cccnc23)cc1F` [Example 19, N-[3-(3-fluoro-4-methylphenyl)pyrazolo[1,5-a]pyrimidin-2-yl]-2-phenylacetamide], the Emax was determined as 77% and the EC50 lay in the range of 1000 to 10000 nM.

Regarding `Cc1cnc2c(-c3ccc(C)c(F)c3)c(NC(=O)CCC3CCCC3)nn2c1` [Example 20, 3-cyclopentyl-N-[3-(3-fluoro-4-methylphenyl)-6-methylpyrazolo[1,5-a]pyrimidin-2-yl]propanamide], the Emax came out at 120% and the EC50 is below 100 nM.

With `CC(C)(C)CC(=O)Nc1nn2cccnc2c1-c1cccc(OC(F)(F)F)c1` [Example 22, 3,3-dimethyl-N-{3-[3-(trifluoromethoxy)phenyl]pyrazolo[1,5-a]pyrimidin-2-yl}butanamide], the Emax came to 141% and the concentration for a half-maximal effect (EC50) lay within 1000 to 10000 nM.

`O=C(CCC1CCCCC1)Nc1nn2cccnc2c1-c1ccc(F)cc1` [Example 24, 3-cyclohexyl-N-[3-(4-fluorophenyl)pyrazolo[1,5-a]pyrimidin-2-yl]propanamide]: the Emax was determined as 137% and the 50% effective concentration (EC50) was 100 to 500 nM.

As for `Cc1cnc2c(-c3ccc(F)cc3)c(NC(=O)Cc3ccccc3)nn2c1` [Example 25, N-[3-(4-fluorophenyl)-6-methylpyrazolo[1,5-a]pyrimidin-2-yl]-2-phenylacetamide], the Emax was found to be 171% and the EC50 is 100 to 500 nM.

Consider `COc1cccc(CC(=O)Nc2nn3cc(C)cnc3c2-c2ccc(F)cc2)c1` [Example 26, N-[3-(4-fluorophenyl)-6-methylpyrazolo[1,5-a]pyrimidin-2-yl]-2-(3-methoxyphenyl)acetamide], for which the Emax was 154% and the concentration giving a half-maximal response (EC50) lay within 500 to 1000 nM.

On to `Cc1cnc2c(-c3ccc(F)cc3)c(NC(=O)Cc3ccc(Cl)cc3)nn2c1` [Example 27, 2-(4-chlorophenyl)-N-[3-(4-fluorophenyl)-6-methylpyrazolo[1,5-a]pyrimidin-2-yl]acetamide], for which the Emax was 125% and the 50% effective concentration (EC50) is 100 to 500 nM.
